{"source": "patent US10208017B2", "about": "“Heterocycles capable of modulating T-cell responses, and methods of using same” (Nogra Pharma Limited, priority 2012, dated 2019)", "key": {"[1]": {"test_system": "interaction between lymphocyte-specific protein tyrosine kinase (LCK) and its chaperone Hsp90", "assay": "Immunoprecipitation of Lck and blotting for Hsp90", "assay_type": "cell-based, Human", "settings": "Lck immunoprecipitation, PHA stimulated lymphocytes", "description": "(§1) Lymphocytes were seeded in a 6 well plate (1.0·10^7/well), pretreated for 10 minutes with S3.1, S3.4 or dexamethasone and stimulated for 10 minutes with PHA. The experiment was stopped by adding a large volume of ice cold PBS to the cells. The suspension was transferred to a tube, briefly spinned down in a centrifuge and the supernatant removed. The pellet was lysed by adding cold lysis buffer (0.1% NP40, 50 mM TrisHCl, 1 mM EDTA, 1 mM EGTA, 150 mM NaCl, 200 μM Na3VO4, 10 mM NaF and protease inhibitors) and incubating 20 minutes on ice.\nThe kinase Lck acts as a gate keeper to T cell receptor (TCR) related signaling as it is one of the first and most up stream kinases to be activated upon stimulation of the TCR. As downstream signaling of the TCR is inhibited by S3.1 and S3.4 treatment interactions with Lck were investigated by immunoprecipitating Lck and blotting for Hsp90. For immunprecipitation experiments 1.0·10^7 cells were used per condition. Cells were pelleted and lysed as described previously. The supernatant was precleared by adding 10 μl Protein A/G UltraLink resin (Pierce Biotechnology, Rockford, USA) for 30 minutes at 4° C. Beads were spinned down and discarded. Samples were incubated with 2 μg primary antibody and 25 μl beads for 2 hours at 4° C. Beads were washed with PBS, sample buffer was added and heated to 95° C. for 5 minutes."}, "[2]": {"test_system": "Human peripheral blood lymphocytes (PBLs) stimulated with PHA", "assay": "Inhibition of T lymphocyte proliferation (tritiated thymidine)", "assay_type": "cell-based"}, "phospho-Zap70": {"test_system": "phospho-Zap70", "assay": "Western blot of TCR related signaling, phospho-Zap70", "assay_type": "cell-based, Human", "settings": "10 min pretreatment, 10 min PHA; compared to a stimulated untreated control", "description": "as §1\n(§2) To investigate the cell signaling events that are affected by treatment with S3.1 and S3.4, lysates were supplemented with sample buffer (188 mM Tris-Cl (pH 6.8), 3% SDS, 30% glycerol, 0.01% bromophenol blue, 15% β-mercaptoethanol), heated to 95° C. for 5 minutes, cooled on ice and sonicated. Samples were then run on 10% SDS-PAGE gel, blotted to PVDF membrane and incubated with antibodies for phospho-Zap70 (Cell Signaling Technology (Beverly, Mass.)) and phospho-LAT (Cell Signaling Technology (Beverly, Mass.)). To show equal loading of the samples the blot was incubated with an antibody directed against beta-actin (Santa Cruz Biotechnology (Heidelberg, Germany))."}, "phospho-LAT": {"test_system": "phospho-LAT", "assay": "Western blot of TCR related signaling, phospho-LAT", "assay_type": "cell-based, Human", "settings": "10 min pretreatment, 10 min PHA; compared to a stimulated untreated control", "description": "as §1, §2"}}, "note": "Entries after “also recorded” stand apart in the source; their conditions may differ."}
{"smiles": "c1ccc(CN2CCCC(c3ccnc(SCCN4CCCC4)n3)C2)cc1", "note": "(stereo not shown) [S3.4, 4-(1-benzylpiperidin-3-yl)-2-(2-(pyrrolidin-1-yl)ethylthio)-pyrimidine]", "values": [{"measurement": "interaction between LCK and its chaperone Hsp90", "setting": "[1]", "value": "lost"}, {"measurement": "effect on lymphocyte proliferation", "setting": "[2]", "value": "antiproliferative effect; also recorded: shows effect on lymphocyte proliferation"}, {"measurement": "phosphorylation level of kinase Zap70", "setting": "phospho-Zap70", "value": "lower phosphorylation levels"}, {"measurement": "phosphorylation level of scaffolding protein LAT", "setting": "phospho-LAT", "value": "lower phosphorylation levels"}]}
